Like-named read-outs stand apart in the source and are kept apart here.
Columns and labels:
[1] = target: Recombinant Human Ketohexokinase (KHK) (Homo sapiens (Human), UniProt P50053); experiment: Ketohexokinase assay (KHK assay), ADP-Glo; format: biochemical
Procedure: • 1. EnVision multilabel reader, Perkin Elmer; • 2. OptiPlate 384-well microplate, Perkin Elmer, Cat. No. 6007290; • 3. Recombinant Human Ketohexokinase (KHK), R&D Cat. No.: 8177-HK-020, Lot No.: DDFK0117092; • 4. Fructose (D(−)-Fructose), SCR Cat. No.: 36003034; and • 5. ADP-Glo kinase assay kit, Promega_Cat. No.: V9101.
1. preparation of Dilution Buffer containing 50 mM hydroxyethylpiperazine […] (Hepes), 140 mM KCl, 3.5 mM MgCl2, and 0.01% bovine serum albumin (BSA), pH 7.4.
2. A working solution of ketohexokinase at 2.5 times concentration was prepared with Dilution Buffer, with 50 nM ketohexokinase and 12.5 mM fructose.
3. A working solution of adenosine triphosphate (ATP) at 2.5 times concentration was prepared with Dilution Buffer, with a concentration of 250 μM.
4. Each compound was diluted starting at a concentration of 500 μM, 3-fold diluted for 9 concentration points. The final concentration of the compound in the reaction system started from 10 μM and the final concentration of dimethyl sulfoxide (DMSO) was 2%.
5. A 96-well plate was prepared as a reaction plate, and was incubated at room temperature for 5 min after adding 6 μL ketohexokinase working solution at 2.5 times concentration to each well and further adding 3 μL compound working solution to each well.
6. The first well of each row was a positive control for a compound, i.e. the same volume of the buffer was added to replace the compound and ketohexokinase. The last well was a negative control for the compound, i.e. the same volume of Dilution Buffer was added instead of the compound.
7. 6 μL ATP working solution was added to each well in a 96-well reaction plate to initiate the kinase reaction. The kinase reaction was incubated in a constant temperature heater at 28° C. for 1 h.
1. A384 plate was prepared as a detection plate, and firstly 5 μL ADP-Glo reagent was added.
2. 5 μL kinase reaction mixture from the reaction plate was added to each well and incubated in a constant temperature heater at 28° C. for 30 min.
3. 10 μL kinase detection reagent was added to each well and incubated in a constant temperature heater at 28° C. for 30 min.
4. The detection plate was placed in an EnVision multilabel reader to read the chemiluminescent signal.

CYP1A2 = CYP1A2 (Homo sapiens (Human), UniProt P05177); format: in vitro ADME; conditions: microsomes
Procedure: (§1) The inhibitory effect of test compounds on the activity of human hepatic microsomal cytochrome P450 isozymes (CYP1A2, CYP2C9, CYP2C19, CYP2D6 and CYP3A4) was determined.
(§2) First, the test compound (10 mM) was diluted in gradient to prepare working solutions (100×final concentration) with working solution concentrations: 5, 1.5, 0.5, 0.15, 0.05, 0.015, 0.005 mM, respectively, and at the same time, working solutions of each positive inhibitor of P450 isozymes (CYP1A2, CYP2C9, CYP2C19, CYP2D6 and CYP3A4) and its specific substrate mixture were prepared. Human liver microsomes frozen in a −80° C. refrigerator were thawed on ice, and diluted with PB (phosphate buffer) after all the human liver microsomes were dissolved, to prepare a working solution at a certain concentration (0.253 mg/mL). 20 μl substrate mixture was added to the reaction plate (20 μL PB was added to the Blank wells) while 158 μL human liver microsome working solution was added to the reaction plate which was placed on ice for later use. At this time, 2 μL of each concentration of the test compound (N=1) and the specific inhibitor (N=2) were added to the corresponding wells, and the corresponding organic solvents were added to the groups without inhibitors (the test compound or the positive inhibitor) as control samples (1:1 DMSO:MeOH for the test compound control sample, and 1:9 DMSO:MeOH for the positive control sample). After pre-incubation in 37° C. water bath for 10 min, 20 μL coenzyme factor (NADPH) solution was added to the reaction plate, and incubated in 37° C. water bath for 10 min. 400 μL cold acetonitrile solution (200 ng/mL Tolbutamide and Labetalol as the internal standard) was added to stop the reaction. The reaction plate was placed on a shaker and shaken for 10 min. The mixture was centrifuged at 4,000 rpm for 20 min, and 200 μl the supernatant was added to 100 μL water for sample dilution. Finally, the plate was sealed, shaken, mixed well and detected by LC/MS/MS.

CYP2C19 = CYP2C19 (Homo sapiens (Human), UniProt P33261); experiment: Inhibitory activity on human liver microsomal cytochrome P450 isozymes; format: in vitro ADME; conditions: human liver microsomes
Procedure: as §1, §2

CYP2C9 = CYP2C9 (Homo sapiens (Human), UniProt P11712); experiment: as above; format: in vitro ADME; conditions: human liver microsomes
Procedure: as §1, §2

CYP2D6 = CYP2D6 (Homo sapiens (Human), UniProt P10635); experiment: as above; format: in vitro ADME; conditions: human liver microsomes
Procedure: as §1, §2

CYP3A4 = CYP3A4 (Homo sapiens (Human), UniProt P08684); experiment: as above; format: in vitro ADME; conditions: human liver microsomes
Procedure: as §1, §2

[2] = Pharmacokinetic evaluation in SD rats; format: in vivo; conditions: rat, plasma; for clearance: 1 mg/kg, read-out: Clearance rate; for clearance / bioavailability: IV 1 mpk; for bioavailability / AUC: PO 3 mpk; for bioavailability: read-out: Bioavailability F; for AUC: read-out: Integral concentration AUC for PO; for half-life: IV 1 mpk and PO 3 mpk study, read-out: Half-life T1/2 (converted)
Procedure: In vivo pharmacokinetics of compounds in SD rats were tested.
Pharmacokinetic profiles in rodents following intravenous and oral administration of the compounds were tested by standard protocols. In the experiment, candidate compounds were formulated as clear solutions or homogeneous suspensions, and were administered to rats by single intravenous injection (IV, 1 mpk) and oral administration (PO, 3 mpk). The vehicle for intravenous injection was a certain proportion of PEG400 in water, and the vehicle for oral administration was a certain proportion of methylcellulose and Tween 80 in water. Whole blood was collected, and plasma was prepared. Drug concentration was analyzed by LC-MS/MS, and pharmacokinetic parameters were calculated by Phoenix WinNonlin software.

[3] = Liver-blood ratio, tissue distribution in rats; format: in vivo, SD rats; conditions: PO 1 mpk
Procedure: Tissue distribution of compounds in SD rats was tested.
In the experiment, candidate compounds were formulated as clear solutions and administered to rats in a single oral dose (PO, 1 mpk). The vehicle for oral administration was a certain proportion of methylcellulose and Tween 80 in water. Whole blood was collected at a certain time and plasma was prepared, and tissues were collected at the corresponding time and prepared into tissue homogenates. Drug concentration was analyzed by LC-MS/MS, and pharmacokinetic parameters were calculated by Phoenix WinNonlin software.

[4] = tested on: fructose metabolism in mice; experiment: Acute fructose feeding experiment in mice; format: in vivo; conditions: compound 30 mpk, oral fructose 1 g/kg
Procedure: The effect of test compounds on the fructose content in mice with high fructose intake was investigated.
All animals were acclimated for one week in an animal house, fed with normal chow and fasted for 16 hours before being given fructose.
1) The experiment began at −0.5 hr. A control group was given a certain volume of vehicle (a certain proportion of methylcellulose and Tween 80 in water), and an experimental group was given a certain dose of a solution of the compound (the administered volume was consistent with the vehicle).
2) 0.5 hour later and before administration of a fructose solution, a blood sample was collected at 0 hr, followed by oral administration of 1 g/kg of an aqueous fructose solution.
3) After the administration of fructose, blood samples were collected from saphenous vein of mice at 0.25, 0.5, 1, 2, 3 and 8 hr, and fructose concentration was analyzed by LC-MS/MS.

[5] = SD, rat, liver, 1 mg/kg, 1.5 h, read-out: Liver tissue concentration
[6] = SD, rat, liver, 1 mg/kg, 2.0 h, read-out: Liver tissue concentration
[7] = SD, rat, liver, 1 mg/kg, 6.0 h, read-out: Liver tissue concentration
[8] = SD, rat, liver/plasma, 1 mg/kg, 1.5 h, read-out: Liver-blood ratio
[9] = SD, rat, liver/plasma, 1 mg/kg, 2.0 h, read-out: Liver-blood ratio
[10] = SD, rat, liver/plasma, 1 mg/kg, 6.0 h, read-out: Liver-blood ratio
[11] = SD, rat, plasma, 1 mg/kg, 1.5 h, read-out: Plasma concentration
[12] = SD, rat, plasma, 1 mg/kg, 2.0 h, read-out: Plasma concentration
[13] = SD, rat, plasma, 1 mg/kg, 6.0 h, read-out: Plasma concentration
[14] = 1.5 h, read-out: Brain tissue concentration
[15] = 1.5 h, read-out: Liver tissue concentration
[16] = 2.0 h, read-out: Brain tissue concentration
[17] = 2.0 h, read-out: Liver tissue concentration
[18] = 6.0 h, read-out: Liver tissue concentration

Chain of CYP2C9 (P11712 whole entry): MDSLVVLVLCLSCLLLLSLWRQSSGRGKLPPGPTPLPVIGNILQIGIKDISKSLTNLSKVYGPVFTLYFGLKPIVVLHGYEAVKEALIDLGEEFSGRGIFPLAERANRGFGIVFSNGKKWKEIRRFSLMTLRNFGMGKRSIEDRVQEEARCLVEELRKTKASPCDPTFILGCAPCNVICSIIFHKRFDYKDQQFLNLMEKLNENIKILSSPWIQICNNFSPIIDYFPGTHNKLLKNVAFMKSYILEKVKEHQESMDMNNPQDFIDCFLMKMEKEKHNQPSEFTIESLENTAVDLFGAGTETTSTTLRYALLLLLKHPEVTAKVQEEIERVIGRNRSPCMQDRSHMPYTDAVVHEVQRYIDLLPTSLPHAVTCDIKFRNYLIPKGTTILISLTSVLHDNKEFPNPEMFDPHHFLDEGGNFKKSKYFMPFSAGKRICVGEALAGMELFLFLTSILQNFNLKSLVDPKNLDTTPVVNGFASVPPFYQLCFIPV
Chain of CYP3A4 (P08684 whole entry): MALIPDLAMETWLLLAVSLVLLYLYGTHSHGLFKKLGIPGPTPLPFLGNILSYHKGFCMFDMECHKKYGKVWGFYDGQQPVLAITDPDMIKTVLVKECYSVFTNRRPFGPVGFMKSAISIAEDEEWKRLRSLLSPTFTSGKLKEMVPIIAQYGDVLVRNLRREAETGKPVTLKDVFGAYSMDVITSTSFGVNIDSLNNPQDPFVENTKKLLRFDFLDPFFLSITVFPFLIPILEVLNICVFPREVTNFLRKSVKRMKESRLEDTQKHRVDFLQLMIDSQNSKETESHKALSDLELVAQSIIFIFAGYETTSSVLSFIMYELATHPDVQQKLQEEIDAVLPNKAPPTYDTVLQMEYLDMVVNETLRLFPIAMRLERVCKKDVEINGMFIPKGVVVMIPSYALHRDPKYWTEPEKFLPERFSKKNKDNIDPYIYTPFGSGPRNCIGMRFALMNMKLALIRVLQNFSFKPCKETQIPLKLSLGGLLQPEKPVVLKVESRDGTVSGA
Chain of CYP2D6 (P10635 whole entry): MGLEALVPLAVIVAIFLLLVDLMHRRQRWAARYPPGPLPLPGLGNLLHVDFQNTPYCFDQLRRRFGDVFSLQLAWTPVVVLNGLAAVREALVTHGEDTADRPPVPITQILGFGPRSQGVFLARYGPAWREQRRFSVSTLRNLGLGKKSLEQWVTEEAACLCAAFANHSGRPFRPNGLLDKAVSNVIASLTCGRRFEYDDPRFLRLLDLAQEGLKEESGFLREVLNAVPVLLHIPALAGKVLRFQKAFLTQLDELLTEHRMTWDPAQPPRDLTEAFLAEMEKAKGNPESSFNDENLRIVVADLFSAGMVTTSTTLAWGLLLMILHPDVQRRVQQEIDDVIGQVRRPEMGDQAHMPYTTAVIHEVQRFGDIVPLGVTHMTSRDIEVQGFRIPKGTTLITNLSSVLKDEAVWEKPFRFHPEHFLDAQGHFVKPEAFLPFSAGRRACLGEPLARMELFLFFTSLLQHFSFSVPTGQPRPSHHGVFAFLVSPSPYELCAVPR
Chain of CYP1A2 (P05177 whole entry): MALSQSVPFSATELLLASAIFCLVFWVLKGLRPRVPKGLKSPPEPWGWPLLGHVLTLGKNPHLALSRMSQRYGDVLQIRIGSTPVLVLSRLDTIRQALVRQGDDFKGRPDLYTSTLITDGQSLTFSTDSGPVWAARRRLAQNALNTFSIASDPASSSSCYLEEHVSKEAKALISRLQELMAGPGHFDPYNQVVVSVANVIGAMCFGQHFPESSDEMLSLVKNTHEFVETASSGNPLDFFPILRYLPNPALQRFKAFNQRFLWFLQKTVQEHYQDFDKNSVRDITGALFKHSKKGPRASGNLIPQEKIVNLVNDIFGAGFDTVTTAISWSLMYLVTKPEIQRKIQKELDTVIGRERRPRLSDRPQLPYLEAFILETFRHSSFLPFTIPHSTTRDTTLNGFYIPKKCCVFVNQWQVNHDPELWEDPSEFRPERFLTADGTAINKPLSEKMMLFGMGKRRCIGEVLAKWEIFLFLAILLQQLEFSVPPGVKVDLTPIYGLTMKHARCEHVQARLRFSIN
Chain of CYP2C19 (P33261 whole entry): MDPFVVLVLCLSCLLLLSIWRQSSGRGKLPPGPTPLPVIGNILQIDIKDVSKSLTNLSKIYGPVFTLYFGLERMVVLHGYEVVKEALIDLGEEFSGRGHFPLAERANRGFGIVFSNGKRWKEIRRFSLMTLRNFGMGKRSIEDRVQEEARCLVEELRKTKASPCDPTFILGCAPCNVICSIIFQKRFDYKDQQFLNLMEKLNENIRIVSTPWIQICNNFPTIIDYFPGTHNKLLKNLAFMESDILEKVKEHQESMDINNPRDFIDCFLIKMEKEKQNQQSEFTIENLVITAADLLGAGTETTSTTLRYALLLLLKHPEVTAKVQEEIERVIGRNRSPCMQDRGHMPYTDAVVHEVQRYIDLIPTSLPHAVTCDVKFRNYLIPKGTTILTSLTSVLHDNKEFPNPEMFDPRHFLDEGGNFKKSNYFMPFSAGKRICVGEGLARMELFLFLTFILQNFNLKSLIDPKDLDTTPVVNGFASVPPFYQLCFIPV
Chain of Recombinant Human Ketohexokinase (KHK) (P50053 whole entry): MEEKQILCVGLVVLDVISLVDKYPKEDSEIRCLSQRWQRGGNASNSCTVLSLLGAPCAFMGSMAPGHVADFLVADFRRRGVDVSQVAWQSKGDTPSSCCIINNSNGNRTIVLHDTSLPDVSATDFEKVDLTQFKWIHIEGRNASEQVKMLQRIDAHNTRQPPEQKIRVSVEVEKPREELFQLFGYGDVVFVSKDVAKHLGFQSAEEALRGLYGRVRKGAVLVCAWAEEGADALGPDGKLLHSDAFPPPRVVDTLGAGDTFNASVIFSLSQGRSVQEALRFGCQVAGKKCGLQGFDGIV

| Compound | IC50 [1] [µM] | IC50 (CYP1A2; human, 10 min) [µM] | IC50 (CYP2C19) [µM] | IC50 (CYP2C9) [µM] | IC50 (CYP2D6) [µM] | IC50 (CYP3A4) [µM] | clearance [2] [mL/min/kg] | bioavailability ([2]; 3 mg/kg) [%] | AUC ([2]; 3 mg/kg) [µM·h] | half-life [2] [h] | concentration at 1.5 h [3, 5] [nM] | concentration at 2 h [3, 6] [nM] | concentration at 6 h [3, 7] [nM] | Kp at 1.5 h [3, 8] | Kp at 2 h [3, 9] | Kp at 6 h [3, 10] | concentration at 1.5 h [3, 11] [nM] | concentration at 2 h [3, 12] [nM] | concentration at 6 h [3, 13] [nM] | IC50 (CYP1A2) [µM] | further results |
| --- | --- | --- | --- | --- | --- | --- | --- | --- | --- | --- | --- | --- | --- | --- | --- | --- | --- | --- | --- | --- | --- |
| C[C@H]1CCN1c1nc(N2C[C@@H]3[C@@H](CC(=O)O)[C@@H]3C2)c2ncsc2n1 [WX001] | 0.18 | > 50 | > 50 | > 50 | > 50 | > 50 | 1.04 | 158 | 163 | 3.12 | 2440 | 4270 | 1790 | 0.491 | 0.469 | 0.549 | 4880 | 9090 | 3320 |  | concentration at 1.5 h ([3]; SD, rat, brain, 1 mg/kg, 1.5 h, read-out: Brain tissue concentration): 72.8 nM; concentration at 2 h ([3]; SD, rat, brain, 1 mg/kg, 2.0 h, read-out: Brain tissue concentration): 162 nM; concentration at 6 h ([3]; SD, rat, brain, 1 mg/kg, 6.0 h, read-out: Brain tissue concentration): 91.5 nM; Kp at 1.5 h ([3]; SD, rat, brain/plasma, 1 mg/kg, 1.5 h, read-out: Brain-blood ratio): 0.015; Kp at 2 h ([3]; SD, rat, brain/plasma, 1 mg/kg, 2.0 h, read-out: Brain-blood ratio): 0.017; Kp at 6 h ([3]; SD, rat, brain/plasma, 1 mg/kg, 6.0 h, read-out: Brain-blood ratio): 0.02 |
| C[C@H]1CCN1c1nc(Nc2ccc(CC(=O)O)cc2)c2ccsc2n1 [WX006] | 0.025 | > 50 | > 50 | > 50 | > 50 | > 50 | 1.05 | 44 | 39.5 | 2.63 | 2420 | 2860 | 2180 | 1.2 | 0.92 | 1.25 | 2010 | 3100 | 1780 |  |  |
| C[C@H]1CCN1c1nc(N2CC3(C[C@@H]3C(=O)O)C2)c2c(n1)C(F)(F)CC2 [WX042] |  |  | > 50 | > 50 | > 50 | > 50 | 8.13 |  | 20.5 | 2.27 |  |  |  |  |  |  |  |  |  | > 50 | bioavailability [2]: 176%; Brain-blood ratio ([3]; 1.5 h): 0.0375; Liver-blood ratio ([3]; 1.5 h): 9.53; Plasma concentration ([3]; 1.5 h): 3314 nM; concentration at 6 h [3, 14]: 76.2 nM; concentration at 1.5 h [3, 15]: 19900 nM; Brain-blood ratio ([3]; 2.0 h): 0.0211; Liver-blood ratio ([3]; 2.0 h): 6.78; Plasma concentration ([3]; 2.0 h): 3045 nM; concentration at 6 h [3, 16]: 62.2 nM; concentration at 1.5 h [3, 17]: 20600 nM; Liver-blood ratio ([3]; 6.0 h): 26.2; Plasma concentration ([3]; 6.0 h): 259 nM; concentration at 1.5 h [3, 18]: 6710 nM; AUC of integral fructose concentration for dosed group [4]: 3400 nM·h; AUC of integral fructose concentration of dosed group/AUC of Integral fructose concentration of control group [4]: 12.9 |
| C[C@H]1CCN1c1nc(N2CC3(C[C@H]3C(=O)O)C2)c2c(n1)C(F)(F)CC2 [WX043] |  |  | > 50 | > 50 | > 50 | > 50 | 5.37 |  | 12 | 5.83 |  |  |  |  |  |  |  |  |  | > 50 | bioavailability [2]: 70%; Brain-blood ratio ([3]; 1.5 h): 0.016; Liver-blood ratio ([3]; 1.5 h): 20.0; Plasma concentration ([3]; 1.5 h): 2025 nM; concentration at 6 h [3, 14]: 30.6 nM; concentration at 1.5 h [3, 15]: 38250 nM; Brain-blood ratio ([3]; 2.0 h): 0.014; Liver-blood ratio ([3]; 2.0 h): 30.0; Plasma concentration ([3]; 2.0 h): 916 nM; concentration at 6 h [3, 16]: 13.1 nM; concentration at 1.5 h [3, 17]: 27800 nM; Liver-blood ratio ([3]; 6.0 h): 81.5; Plasma concentration ([3]; 6.0 h): 246 nM; concentration at 1.5 h [3, 18]: 19800 nM; AUC of integral fructose concentration for dosed group [4]: 3504 nM·h; AUC of integral fructose concentration of dosed group/AUC of Integral fructose concentration of control group [4]: 13.3 |

Source: US12534477B2, “Compound having KHK inhibitory effect” (HANGZHOU ZHONGMEIHUADONG PHARMACEUTICAL CO., LTD., priority 2019, dated 2026)
